Data as given in paper PMC10341549, “Inhibitory Investigations of Acyl-CoA Derivatives against Human Lipoxygenase Isozymes” (International Journal of Molecular Sciences, 2023).

What was measured:
Format in all cases: biochemical
h15-LOX-1 [1] = molecular target: T1, h15-LOX-1 (Homo sapiens, UniProt P16050); assay: IC50 determination against h15-LOX-1; details: 10 μM AA, 25 mM HEPES pH 7.5, 0.01% Triton X-100, 22 °C
T1 construct: His tag; made in house
T1 sequence (P16050 1-662): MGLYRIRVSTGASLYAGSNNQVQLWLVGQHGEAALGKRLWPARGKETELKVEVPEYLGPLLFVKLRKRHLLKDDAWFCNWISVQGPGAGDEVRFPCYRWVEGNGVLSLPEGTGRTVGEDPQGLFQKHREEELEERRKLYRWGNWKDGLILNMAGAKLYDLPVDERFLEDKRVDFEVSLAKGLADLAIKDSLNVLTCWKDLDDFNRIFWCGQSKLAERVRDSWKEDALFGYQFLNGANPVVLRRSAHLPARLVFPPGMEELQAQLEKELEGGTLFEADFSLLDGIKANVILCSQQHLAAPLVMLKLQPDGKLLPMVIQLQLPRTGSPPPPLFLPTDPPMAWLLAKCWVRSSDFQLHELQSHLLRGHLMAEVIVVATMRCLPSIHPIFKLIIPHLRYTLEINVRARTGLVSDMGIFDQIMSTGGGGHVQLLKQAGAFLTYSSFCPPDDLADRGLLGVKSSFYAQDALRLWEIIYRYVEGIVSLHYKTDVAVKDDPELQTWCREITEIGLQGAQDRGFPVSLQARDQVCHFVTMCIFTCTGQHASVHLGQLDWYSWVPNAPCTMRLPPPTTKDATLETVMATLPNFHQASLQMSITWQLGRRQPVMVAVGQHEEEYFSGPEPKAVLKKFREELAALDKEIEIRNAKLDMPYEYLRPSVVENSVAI
Description: (§1) Overexpression and purification of his-tagged wild-type h12-LOX (Uniprot entry P18054), h15-LOX-1 (Uniprot entry P16050), and h15-LOX-2 (Uniprot entry O15296) were performed using nickel-affinity chromatography. The purity of h12-LOX, h15-LOX-1, and h15-LOX-2 was assessed using SDS gel as greater than 85%, and metal content was assessed with a Finnigan inductively coupled plasma mass spectrometer (ICP-MS, Thermo Fischer Scientific, San Jose, USA) via comparison with iron standard solution. Cobalt-EDTA was used as an internal standard. WT h5-LOX (UniProt entry P09917) was expressed in Rosetta 2 cells (Novagen) transformed with the pET14b-Stable-5-LOX plasmid (a gift from Marcia Newcomer of Louisiana State University) and grown in Terrific Broth containing 34 μg/mL chloramphenicol and 100 μg/mL ampicillin at 37 °C for 3.5 h, then placed at 20 °C for an additional 26 h. Cells were pelleted and resuspended in 50 mM Tris (pH 8.0), 500 mM NaCl, 20 mM imidazole with 1 μM pepstatin, 100 μM PMSF, and DNaseI (Sigma, Kanagawa, Japan). The cells were lysed in a French pressure cell and centrifuged at 40,000× g for 20 min at 4 °C. Saturated ammonium sulfate was added to achieve a final solution of 10% and inverted several times. The lysate was centrifuged at 40,000× g for 10 min at 4 °C. The pellet was discarded, and the supernatant was increased to a final concentration of 50% ammonium sulfate. The supernatant was rotated for 10 min at 4 °C then centrifuged at 40,000× g for 10 min at 4 °C. The pellet was split into 150 mg aliquots. The WT h5-LOX used for the kinetics in this work was not purified due to a dramatic loss in activity and was therefore prepared as an ammonium-sulfate precipitate.
(§2) IC50 values for each acyl-CoA were measured against h5-LOX, h12-LOX, h15-LOX-1, and h15-LOX-2. The reactions were carried out in 25 mM HEPES buffer (pH 8.00), 0.01% Triton X-100, and 10 μM AA for h12-LOX; 25 mM HEPES buffer (pH 7.5), 0.01% Triton X-100, and 10 μM AA for h15-LOX-1 and h15-LOX-2; and 50 mM HEPES buffer (pH 7.5), 100 µM EDTA, 50 mM NaCl, 200 µM ATP, and 10 μM AA for h5-LOX. IC50 reactions were implemented with h15-LOX-1 (0.125 μM), h12-LOX (0.300 μM), h15-LOX-2 (0.5 μM), and h5-LOX (∼600 nM ammonium sulfate salt) at 22 °C in a 1 cm^2 quartz cuvette containing 2 mL of the according buffer and 10 μM AA for no longer than 2 min to avoid any cleavage of the acyl-coenzyme A. Inhibitor concentrations ranging from 50 μM to 0.01 μM were used. All reactions were conducted using a Cary-UV Vis spectrophotometer (Agilent, Santa Clara, CA, USA). The fastest rates over 15 s intervals were recorded. IC50 values were obtained by determining the percent of inhibition of the enzymatic rate at ten inhibitor concentrations and plotting the rate against the inhibitor concentration, followed by a hyperbolic saturation curve fit. The saturation curve fits were performed in duplicate or triplicate, depending on the quality of the data. […] Through HPLC monitoring, we were able to determine a lack of degradation of the fatty acyl-CoAs over the first hour.

h12-LOX = molecular target: T2, h12-LOX (Homo sapiens, UniProt P18054); assay: IC50 determination against h12-LOX; details: methyl esters; 10 μM AA, pH 8.00; read-out: IC50 h12-LOX (methyl ester unsaturated fatty acids)
T2 construct: His tag; made in house
T2 sequence (P18054 1-663): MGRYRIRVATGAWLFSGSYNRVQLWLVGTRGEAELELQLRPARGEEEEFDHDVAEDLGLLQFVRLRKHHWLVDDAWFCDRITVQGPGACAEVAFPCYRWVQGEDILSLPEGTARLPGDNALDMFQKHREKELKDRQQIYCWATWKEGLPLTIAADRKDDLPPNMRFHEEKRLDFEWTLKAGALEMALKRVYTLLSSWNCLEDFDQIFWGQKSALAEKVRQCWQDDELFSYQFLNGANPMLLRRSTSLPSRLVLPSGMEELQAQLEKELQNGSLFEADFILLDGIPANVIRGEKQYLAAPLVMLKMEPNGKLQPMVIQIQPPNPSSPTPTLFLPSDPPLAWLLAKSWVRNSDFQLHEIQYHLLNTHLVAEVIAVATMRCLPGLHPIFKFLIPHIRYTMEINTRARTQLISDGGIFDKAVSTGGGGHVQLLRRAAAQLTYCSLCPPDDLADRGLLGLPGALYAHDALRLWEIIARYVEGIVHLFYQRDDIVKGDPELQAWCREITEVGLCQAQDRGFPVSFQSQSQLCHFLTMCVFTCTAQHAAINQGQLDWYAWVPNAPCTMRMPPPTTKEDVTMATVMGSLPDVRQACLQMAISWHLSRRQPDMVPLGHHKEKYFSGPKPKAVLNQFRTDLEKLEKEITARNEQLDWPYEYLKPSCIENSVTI
Description: as §1
IC50 values for each acyl-CoA were measured against h5-LOX, h12-LOX, h15-LOX-1, and h15-LOX-2. […] The fastest rates over 15 s intervals were recorded. […]

h15-LOX-2 = molecular target: T3, h15-LOX-2 (Homo sapiens, UniProt O15296); assay: IC50 determination against h15-LOX-2; details: 10 μM AA, 25 mM HEPES pH 7.5, 0.01% Triton X-100, 22 °C
T3 construct: His tag; made in house
T3 sequence (O15296 1-676): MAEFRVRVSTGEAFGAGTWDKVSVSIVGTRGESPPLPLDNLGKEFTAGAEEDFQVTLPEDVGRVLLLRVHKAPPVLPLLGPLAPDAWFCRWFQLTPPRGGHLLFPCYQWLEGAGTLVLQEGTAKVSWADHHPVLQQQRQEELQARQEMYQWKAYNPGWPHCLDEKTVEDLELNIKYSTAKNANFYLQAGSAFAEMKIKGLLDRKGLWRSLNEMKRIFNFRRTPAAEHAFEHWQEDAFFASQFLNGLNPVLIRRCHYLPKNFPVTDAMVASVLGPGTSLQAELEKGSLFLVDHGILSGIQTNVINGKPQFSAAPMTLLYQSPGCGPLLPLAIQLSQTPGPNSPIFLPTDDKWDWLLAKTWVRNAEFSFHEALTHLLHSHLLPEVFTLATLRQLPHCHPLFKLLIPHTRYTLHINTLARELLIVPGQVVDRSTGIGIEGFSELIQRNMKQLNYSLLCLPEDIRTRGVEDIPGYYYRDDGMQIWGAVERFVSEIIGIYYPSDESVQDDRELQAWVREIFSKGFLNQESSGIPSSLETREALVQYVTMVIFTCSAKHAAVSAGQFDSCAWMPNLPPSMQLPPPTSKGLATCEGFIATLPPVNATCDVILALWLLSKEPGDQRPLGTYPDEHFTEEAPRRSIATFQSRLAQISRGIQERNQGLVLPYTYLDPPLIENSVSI
Description: as §1, §2

h15-LOX-1 [2] = molecular target: T1, h15-LOX-1; assay: Substrate activity and kinetic parameters with h15-LOX-1; details: acyl-CoAs tested at 70 µM; change in absorbance at 234 nm
Description: Considering that some of these acyl-CoAs could potentially be substrates for LOX isozymes, each acyl-CoA was tested at 70 µM against each LOX isozyme to establish the possibility of catalysis.
The same buffer as used to determine IC50 values for h5-LOX was used for product determination. Turnover was monitored by absorbance at 234 nm.

Row | Structure (SMILES) | IC50 (h15-LOX-1 [1]) [µM] | IC50 (h12-LOX) [µM] | IC50 (h15-LOX-2) [µM] | Substrate activity with h15-LOX-1 (h15-LOX-1 [2])
1 | CC/C=C\C/C=C\C/C=C\CCCCCCCCCCCC(=O)OC [methyl 13(Z),16(Z),19(Z)-docosatrienoate, methyl-13(Z),16(Z),19(Z)-docosatrienoate (22:3)] | > 200 | > 200 | > 200 | 
2 | CC/C=C\C/C=C\C/C=C\CC/C=C\CCCCCCCC(=O)OC [methyl docosatetraenoate, methyl-9(Z),13(Z),16(Z),19(Z)-docosatetraenoate (22:4)] | > 200 | > 200 | > 200 | 
3 | CCCCC/C=C\C/C=C\C/C=C\C/C=C\CCCC(=O)OC [methyl ester arachidonic acid] |  |  |  | substrates
4 | CCCCC/C=C\C/C=C\CCCCCCCCCCCC(=O)OC [methyl-13Z,16Z-docosadienoic, methyl-13Z,16Z-docosadienoic (22:2)] | > 200 | > 200 | > 200 | 
